What all share (assay type): cell-based, human
Experiment [1] relates to P-12 Ichikawa cell line. In words: Cell cycle status by propidium iodide FACS (growth sensitivity). Particulars: eight days; DAPT 5 μM, anti-NRR1 5 μg/ml; FIG. 3A-3D. How it is done: (§1) FIGS. 3-5 presents the classification of three representative human T-ALL cell lines. Those cell lines include the P-12 Ichikawa cell line, the HPB-ALL cell line, and the TALL-1 cell line. The cells were grown for eight days in control conditions (DMSO alone (the vehicle for DAPT) or anti-gD (an isotype control antibody)); in the presence of the gamma-secretase inhibitor, DAPT (5 μM); or in the presence of anti-NRR1 (5 μg/ml). The cells were fixed, stained with propidium iodide and prepared for FACS to analyze the cell cycle status, according to standard procedures. […] HPB-ALL cells are sensitive to both DAPT and anti-NRR1 (FIG. 4A-4D), with DAPT- and anti-NRR1-treated cells showing about 78% and 76% of cells in G0/G1, respectively, compared to about 33-34% of the control cells. TALL-1 cells are sensitive to DAPT but resistant to anti-NRR1 (FIG. 5A-5D), with about 87% of DAPT-treated cells in G0/G1, compared to about 55% of anti-NRR1-treated cells and about 53-54% of control cells. It is noted that Notch1 is not mutated in TALL-1 cells. […] (Data not shown and FIG. 10.)

Another experiment has as its system CCRF-CEM cells. The experiment is described as above. Particulars: eight days; DAPT 5 μM, anti-NRR1 5 μg/ml, anti-NRR3 10 μg/ml; FIG. 10A-10F. How it is done: as §1
(§2) As described above, two of the three classes of T-ALL, represented by HPB-ALL and TALL-1, are both sensitive to GSI but differ in that the former is sensitive to anti-NRR1, whereas the latter is not. […] To address this question, CCRF-CEM cells, HPB-ALL cells, and TALL-1 cells were treated as described for FIGS. 3-5, except that a Notch3-specific antagonist was also included at 10 μg/ml in a subset of the treatments to test whether growth depended on Notch3 signaling. The Notch3-specific antagonist used in these studies was mouse anti-human Notch3 monoclonal antibody 256A-4, the isolation and characterization of which are discussed in U.S. Patent Application Publication No. US 2008/0226621 A1. For convenience, 256A-4 is referred to herein as “anti-NRR3,” and is also referred to as “α-N3” in the figures.

For experiment [2], the system named is HPB-ALL cell line. The description is as above. As to conditions: eight days, DAPT 5 μM, anti-NRR1 5 μg/ml. How it is done: as §1, §2
In experiment [3] the test system is TALL-1 cell line. Described as above. Particulars: eight days, DAPT 5 μM, anti-NRR1 5 μg/ml; for percentage of cells in G0/G1: control cells about 53-54%. How it is done: as §1, §2
The subject of experiment [4] is HPB-ALL cell line. The experiment is described as follows: Cell diameter measurement (Vi-Cell cell counter). As to conditions: approximately one week; DAPT 5 μM, anti-NRR1 5 μg/ml; FIG. 6. How it is done:
(§3) The P-12 Ichikawa cell line, the HPB-ALL cell line, and the TALL-1 cell line were grown for approximately one week in control conditions (DMSO alone (the vehicle for DAPT) or anti-gD (an isotype control antibody)); in the presence of the gamma-secretase inhibitor, DAPT (5 μM); or in the presence of anti-NRR1 (5 μg/ml). Cell diameter was measured using a cell counter (Vi-Cell, Beckman Coulter). Consistent with the growth inhibition studies, the P-12 Ichikawa line is resistant to both DAPT and anti-NRR1, as indicated by relatively consistent cell diameter among treated and control cells.

Experiment [5] deals with P-12 Ichikawa cell line. The experiment is described as follows: Cell diameter measurement (Vi-Cell cell counter). Particulars: approximately one week; DAPT 5 μM, anti-NRR1 5 μg/ml; FIG. 6. How it is done: as §3
The subject of experiment [6] is TALL-1 cell line. In words: Cell diameter measurement (Vi-Cell cell counter). Particulars: approximately one week; DAPT 5 μM, anti-NRR1 5 μg/ml; FIG. 6. How it is done:
as §3

For experiment [7], the system named is HPB-ALL cell line. In words: Apoptosis by Annexin V / 7-AAD FACS. Particulars: approximately one week; DAPT 5 μM, anti-NRR1 5 μg/ml; FIG. 7. How it is done: (§4) The P-12 Ichikawa cell line, the HPB-ALL cell line, and the TALL-1 cell line were treated as described above for FIG. 6. The cells were analyzed by FACS, with staining for 7-AAD (cell death marker) on the x-axis of FIG. 7, and staining for Annexin V (marker for apoptosis) on the y-axis of FIG. 7. […] In contrast, P-12 Ichikawa cells are resistant to both treatments, whereas TALL-1 cells are sensitive to DAPT but not to anti-NRR1.

Experiment [8] deals with P-12 Ichikawa cell line. The experiment is described as follows: Apoptosis by Annexin V / 7-AAD FACS. As to conditions: approximately one week; DAPT 5 μM, anti-NRR1 5 μg/ml; FIG. 7. How it is done:
as §4

In experiment [9] the test system is TALL-1 cell line. The experiment is described as follows: Apoptosis by Annexin V / 7-AAD FACS. As to conditions: approximately one week; DAPT 5 μM, anti-NRR1 5 μg/ml; FIG. 7. How it is done:
as §4

For experiment [10], the system named is HPB-ALL cell line. The experiment is described as follows: Cell proliferation assay by Ki-67 staining FACS. As to conditions: approximately one week; DAPT 5 μM, anti-NRR1 5 μg/ml; FIG. 8 left panel. How it is done: (§5) The P-12 Ichikawa cell line, the HPB-ALL cell line, and the TALL-1 cell line were treated as described above for FIG. 6. The cells were analyzed by FACS using Ki-67 staining to mark proliferation (left panel). A shift in the FACS peak to the left indicates lower staining for Ki-67 and decreased proliferation, and conversely, a shift in the FACS peak to the right indicates higher staining for Ki-67 and increased proliferation. Based on this proliferation assay, HPB-ALL was sensitive to both DAPT and anti-NRR1, TALL-1 was sensitive to DAPT but not anti-NRR1, and P-12 Ichikawa cells were resistant to both. […] Low cell counts (i.e., low numbers of Annexin V/7-AAD double negative (non-apoptotic) cells) indicate increased apoptosis, which in turn correlate with decreased proliferation in the left hand panel.

The subject of experiment [11] is P-12 Ichikawa cell line. The experiment is described as follows: Cell proliferation assay by Ki-67 staining FACS. As to conditions: approximately one week; DAPT 5 μM, anti-NRR1 5 μg/ml; FIG. 8 left panel. How it is done: as §5
The test system of experiment [12] is TALL-1 cell line. In words: Cell proliferation assay by Ki-67 staining FACS. As to conditions: approximately one week; DAPT 5 μM, anti-NRR1 5 μg/ml; FIG. 8 left panel. How it is done: as §5
The test system of experiment [13] is activated Notch3 in TALL-1. In words: Immunoblot of nuclear fractions with anti-Notch3 ICD antibody. As to conditions: TALL-1 nuclear fractions; FIG. 13 lower panel. The source says:
(§6) This new anti-Notch3 ICD antibody was then used to investigate the activation status of Notch3 in the three classes of T-ALL. […] 3T3 cells expressing Notch1 (3T3-N1) and MDA-MB-468 (MB468) cells were used as controls. Consistent with the growth inhibition studies described in the previous figures, TALL-1 expresses high levels of activated Notch3 but not activated Notch1 (compare TALL-1 lanes in lower and upper panels, respectively). Furthermore, production of activated Notch3 in TALL-1 could be blocked by DAPT but not anti-NRR1 (lower panel). Moreover, as expected, HPB-ALL cells express high levels of activated Notch1, which can be blocked by DAPT or anti-NRR1 antibody (see HPB-ALL lanes in upper panel). As to the controls, activated Notch1 is seen as a lighter, up-shifted band in the 3T3-N1 cells treated with Jagged (+jag) (upper panel).
(In western blotting, separated proteins are transferred to a membrane and probed.)

Experiment [14] has as its system activated Notch1 in HPB-ALL cells. The experiment is described as follows: Immunoblot of nuclear fractions with anti-Notch1 Val1744. As to conditions: FIG. 13 upper panel.
Description: as §6

Experiment [15] concerns activated Notch3 in MDA-MB-468 cells. In words: Immunoblot of MDA-MB-468 cells treated with anti-Notch3 agonist antibody. As to conditions: in the absence of DAPT, FIG. 13 lower panel.
Description: as §6

Setting [16] is: anti-NRR3 10 μg/ml, FIG. 11A-11F.

This is an account of results in US9200071B2, “Methods of treating cancer using Notch1 and Notch3 antagonists” (Genentech, Inc., priority 2009, dated 2015).

Turning to `C[C@H](NC(=O)Cc1cc(F)cc(F)c1)C(=O)N[C@H](C(=O)OC(C)(C)C)c1ccccc1` [DAPT, N—[N-(3,5-difluorophenacetyl)-L-alanyl]-S-phenylglycine t-butyl ester], the “growth sensitivity (cell cycle status)” value with P-12 Ichikawa cell line [1] is on record as “resistant”; with CCRF-CEM cells it was “resistant”; with HPB-ALL cell line [2] (setting [16]), “sensitive”; with HPB-ALL cell line [2] (FIG. 4A-4D), “sensitive”; with TALL-1 cell line [3] (FIG. 5A-5D), “sensitive”. For the same molecule, the “percentage of cells in G0/G1” value with HPB-ALL cell line [2] (setting [16]) is “about 67%”; in the experiment on HPB-ALL cell line [2] (FIG. 4A-4D, control cells about 33-34%), “about 78%”; in the experiment on TALL-1 cell line [3] (anti-NRR3 10 μg/ml, FIG. 9A-9F) it was approximately 83%; in the experiment on TALL-1 cell line [3] (FIG. 5A-5D), “about 87%”. For the same molecule, the “cell diameter (cell size) versus control” value is “significantly smaller size” with HPB-ALL cell line [4], “resistant” with P-12 Ichikawa cell line [5] and “significantly smaller size” in the experiment with TALL-1 cell line [6]. For the same molecule, the “apoptotic cell death (Annexin V/7-AAD double positive population)” value is recorded as “increases apoptotic cell death” in the experiment with HPB-ALL cell line [7], “resistant” in the experiment on P-12 Ichikawa cell line [8] and “sensitive” with TALL-1 cell line [9]. For the same molecule, the results for the “proliferation (Ki-67 staining)” value in the experiment on HPB-ALL cell line [10], in the experiment with P-12 Ichikawa cell line [11] and in the experiment on TALL-1 cell line [12] were “sensitive”, “resistant” and “sensitive”, respectively. Besides, the “production of activated Notch3 (nuclear fraction immunoblot)” value in experiment [13] is on record as “blocked”. Besides, the “activated Notch1 levels (nuclear fraction immunoblot)” value in experiment [14] is listed as “blocked”.

B1: A13: anti-Notch3 agonist antibody described in US 2008/0118520 A1 as 256A-13 (antibody, V domains shown)
VH: SQVQLQQSGAELAKPGTSVKMACKASGYTFTTHWMNWVKQRPGQGLEWIGTINPSNDFTDCNQKFKDKAILTADKSSSTAYMQLSSLTSEDSAIYYCASGLTARAWFAYWGQGTLVTVSAA
VL: RATISCRASQSVTTSNYSYMHWFQQKPGQPPKLLIKYASNLDSGVPARFSGSGSGTDFTLNIHPVEEEDTATFYCQHSWEIPYTFGGGTNLEIKRADAAPTV
B1: in [15], the “activated Notch3 band after agonist antibody treatment” value is “faint but detectable band”.
